Experiments:
[1] = tested on: HEK-293 cells; experiment: NAD+ concentration in HEK-293 cells after treatment with nicotinic acid ester mononucleotides (NAD+ cycling assay); type: cell-based, human; details: HEK293, 24 hr incubation
Procedure: L. et al., Arch. Biochem. Biophys., 175: 627-634 (1976)). The cells were washed with PBS, counted by haemocytometry and pelleted. The cells were then treated with 7% perchloric acid, and then neutralized with 1 M NaOH and 500 mM potassium phosphate pH 8.5. NAD^+ contents were then measured on a plate reader using diaphorase and lactate dehydrogenase using Resazurin as a dye that is reduced to rezarufin (emission 560 nm). NAD^+ levels were quantitated using a standard curve using known NAD^+ concentrations. NAD^+ concentrations are determined to nmol NAD^+/10^6 cells. All values in Table 1 are listed as compared to control.

[2] = tested on: HEK293 cells; experiment: Intracellular NAD+ levels in HEK293 cells after 8 h incubation with NaMN or NR; type: cell-based, human; details: 1 mM, HEK293, FIG. 4
Procedure: (§1) The ability of nicotinic acid mononucleotide, NaMN, to serve as an NAD^+ enhancing agent in mammalian cell lines, Neuro2a and HEK293 cells was examined after an 8 h incubation. NaMN was added to cell growth media at a concentration of 1 mM. All cell treatments were done in duplicate. Nicotinamide riboside (NR) at 1 mM concentration was performed as a positive control. Untreated cells served as negative controls. Cells were treated for the allotted time then harvested by trysin detachment and pelleting. Cells were counted by haemocytometer and then lysed by treatment with 100 μL perchloric acid (7%). Lysates were then neutralized by treatment with NaOH and K2PO4 solutions. NAD^+ concentrations were determined by a daphorase-based assay. NAD^+ standards were also run to establish a standard curve. The results are graphically depicted in FIG. 4.

[3] = tested on: Neuro2a cells; experiment: Intracellular NAD+ levels in Neuro2a cells after 8 h incubation with NaMN or NR; type: cell-based; details: 1 mM, FIG. 4
Procedure: as §1

SMILES	NAD^+ Level (% versus control) ([1]; 25 μM)	NAD^+ Level (% versus control) ([1]; 100 μM)	NAD^+ Level (% versus control) ([1]; 200 μM)	NAD^+ Level (% versus control) ([1]; 500 μM)	intracellular NAD^+ content versus untreated cells [2]	intracellular NAD^+ content versus untreated cells [3]
CCCCCOC(=O)c1ccc[n+]([C@@H]2O[C@H](COP(=O)([O-])O)[C@H](O)[C@@H]2O)c1 [compound 5c, ((2R,3R,4S,5R)-3,4-dihydroxy-5-(3-(pentyloxycarbonyl)pyridin-1-ium-1-yl)tetrahydrofuran-2-yl)methyl hydrogen phosphate]	80 ± 21	105 ± 26	171 ± 18	124 ± 27		
O=C(O)c1ccc[n+]([C@@H]2O[C@H](COP(=O)(O)O)[C@@H](O)[C@H]2O)c1 [NaMN, nicotinic acid mononucleotide]					No intracellular increase in NAD^+	No intracellular increase in NAD^+
NC(=O)c1ccc[n+]([C@@H]2O[C@H](CO)[C@@H](O)[C@H]2O)c1 [NR, Nicotinamide riboside]					increased NAD^+ contents in cells	increased NAD^+ contents in cells
CCCCCCOC(=O)c1ccc[n+]([C@@H]2O[C@H](COP(=O)([O-])O)[C@H](O)[C@@H]2O)c1 [compound 5d, ((2R,3R,4S,5R)-3,4-dihydroxy-5-(3-(hexyloxycarbonyl)pyridin-1-ium-1-yl)tetrahydrofuran-2-yl)methyl hydrogen phosphate]	136 ± 26	162 ± 15		146 ± 48		
CCCCOC(=O)c1ccc[n+]([C@@H]2O[C@H](COP(=O)([O-])O)[C@H](O)[C@@H]2O)c1 [compound 5b, ((2R,3R,4S,5R)-3,4-dihydroxy-5-(3-(butoxycarbonyl)pyridin-1-ium-1-yl)tetrahydrofuran-2-yl)methyl hydrogen phosphate]	104 ± 29	165 ± 31		103 ± 32		
CCCCCCCOC(=O)c1ccc[n+]([C@@H]2O[C@H](COP(=O)([O-])O)[C@H](O)[C@@H]2O)c1 [compound 5e, ((2R,3R,4S,5R)-3,4-dihydroxy-5-(3-(heptyloxycarbonyl)pyridin-1-ium-1-yl)tetrahydrofuran-2-yl)methyl hydrogen phosphate]	152 ± 19	150 ± 11		123 ± 21		
CCCCCCCCOC(=O)c1ccc[n+]([C@@H]2O[C@H](COP(=O)([O-])O)[C@H](O)[C@@H]2O)c1 [compound 5f, ((2R,3R,4S,5R)-3,4-dihydroxy-5-(3-(octyloxycarbonyl)pyridin-1-ium-1-yl)tetrahydrofuran-2-yl)methyl hydrogen phosphate]			90 ± 8.7			
